Assay results: ChEMBL document CHEMBL4196191, “Lowering Lipophilicity by Adding Carbon: One-Carbon Bridges of Morpholines and Piperazines” (J Med Chem, 2018)

Key:
[1] = Intrinsic permeability in human Caco2 cells; assay type: ADME, cell-based; conditions: Caco-2
[2] = target: Voltage-gated inwardly rectifying potassium channel KCNH2 (Homo sapiens, UniProt Q12809); experiment: Inhibition of human ERG
[3] = Distribution coefficient, log D of the compound in buffer/octanol solution by shake-flask method; assay type: physicochemical
[4] = Intrinsic clearance in rat hepatocytes assessed per million cells; assay type: ADME, cell-based, Hepatocyte; conditions: read-out: CLH
[5] = Dissociation constant, pKa of the compound (morpholine); assay type: physicochemical

Voltage-gated inwardly rectifying potassium channel KCNH2, sequence (Q12809 whole entry): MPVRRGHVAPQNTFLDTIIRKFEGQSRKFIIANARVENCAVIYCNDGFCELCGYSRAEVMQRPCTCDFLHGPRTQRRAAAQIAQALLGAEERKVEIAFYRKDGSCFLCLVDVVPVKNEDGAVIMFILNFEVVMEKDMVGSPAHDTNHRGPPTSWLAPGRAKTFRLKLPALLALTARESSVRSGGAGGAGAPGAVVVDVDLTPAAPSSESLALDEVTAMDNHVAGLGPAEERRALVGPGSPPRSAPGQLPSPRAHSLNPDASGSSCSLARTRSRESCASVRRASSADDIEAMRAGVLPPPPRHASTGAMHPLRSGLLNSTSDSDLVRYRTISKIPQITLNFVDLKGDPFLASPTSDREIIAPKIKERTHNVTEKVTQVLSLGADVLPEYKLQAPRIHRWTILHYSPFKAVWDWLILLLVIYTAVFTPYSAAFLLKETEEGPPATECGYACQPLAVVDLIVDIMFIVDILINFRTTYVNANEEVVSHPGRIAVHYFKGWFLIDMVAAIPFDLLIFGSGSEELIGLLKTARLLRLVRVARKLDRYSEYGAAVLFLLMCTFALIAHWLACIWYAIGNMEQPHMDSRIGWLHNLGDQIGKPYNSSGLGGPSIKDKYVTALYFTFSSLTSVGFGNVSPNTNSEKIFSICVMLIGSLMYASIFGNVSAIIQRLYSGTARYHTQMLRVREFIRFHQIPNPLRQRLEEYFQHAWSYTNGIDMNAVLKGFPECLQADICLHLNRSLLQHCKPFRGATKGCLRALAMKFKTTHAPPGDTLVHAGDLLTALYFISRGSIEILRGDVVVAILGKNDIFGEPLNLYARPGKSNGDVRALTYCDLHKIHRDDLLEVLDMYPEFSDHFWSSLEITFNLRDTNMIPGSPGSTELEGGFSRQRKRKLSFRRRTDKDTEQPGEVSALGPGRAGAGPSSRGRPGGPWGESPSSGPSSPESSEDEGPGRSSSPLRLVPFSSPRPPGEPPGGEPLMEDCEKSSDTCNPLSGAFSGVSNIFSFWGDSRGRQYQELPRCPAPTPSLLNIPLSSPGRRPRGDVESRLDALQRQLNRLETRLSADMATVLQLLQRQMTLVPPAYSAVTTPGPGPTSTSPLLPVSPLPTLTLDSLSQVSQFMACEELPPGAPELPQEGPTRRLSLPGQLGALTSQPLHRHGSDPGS

Row | Papp [1] | logD [3] | hepatocyte CLint [4] | SMILES | IC50 [2] | pKa [5]
1 | 27 ×10⁻⁶ cm/s | 3.1 | 210 µL/min/1e6 cells | Cc1c[nH]c2ncnc(O[C@H]3CC[C@H](N4CCO[C@H](C)C4)CC3)c12 | > 39.8 µM | –
2 | 33 ×10⁻⁶ cm/s | 2.6 | 180 µL/min/1e6 cells | Cc1c[nH]c2ncnc(O[C@H]3CC[C@H](N4CCOCC4)CC3)c12 | > 39.8 µM | 7.5
3 | 31 ×10⁻⁶ cm/s | 3 | 140 µL/min/1e6 cells | Cc1c[nH]c2ncnc(O[C@H]3CC[C@H](N4CCO[C@@H](C)C4)CC3)c12 | 25.1 µM | –

Row | SMILES | Papp [1] | logD [3] | hepatocyte CLint [4] | IC50 [2] | pKa [5]
4 | Cc1c[nH]c2ncnc(O[C@H]3CC[C@H](N4C[C@H]5C[C@@H]4CO5)CC3)c12 | 25 ×10⁻⁶ cm/s | 1.8 | 110 µL/min/1e6 cells | > 39.8 µM | 8.1
5 | Cc1c[nH]c2ncnc(O[C@H]3CC[C@H](N4C[C@@H]5C[C@H]4CO5)CC3)c12 | 29 ×10⁻⁶ cm/s | 2 | 36 µL/min/1e6 cells | > 39.8 µM | –
